Assays:
HSV-1 = HSV-1 plaquing efficiency assay; assay type: cell-based
[1] = Cell viability MTS assay, conditions of the HRoV assay; assay type: cell-based; settings: African green monkey, MA104 cells
Protocol: (§1) Cell viability was measured using the MTS [3- (4,5-dimethylthiazol-2-yl)-5- (3 carboxy methoxy phenyl)-2-(4-sulfophenyl)-2H-tetrazolium] assay. Cell cultures were seeded in 96-well plates and were incubated with different concentrations of compounds in duplicate under the same experimental conditions described for the antiviral assays, (i.e. if the incubation time of the compound on cells was carried for 2 hours and then the evaluation of the antiviral activity was done 72h later, the same timing was used for the cytotoxicity assays, in order to exclude any toxicity effect in the antiviral evaluation). Cell viability was determined using the CellTiter 96 Proliferation Assay Kit (Promega, Madison, WI, USA) according to the manufacturer's instructions. Absorbances were measured using a Microplate Reader (Model 680, BIORAD) at 490 nm. The effect on cell viability at different concentrations of the compound was expressed as a percentage, by comparing absorbances of treated cells with those of cells incubated with culture medium and equal volumes of vehicle. The 50% cytotoxic concentrations (CC50) and 95% confidence intervals (CIs) were determined using Prism software (Graph-Pad Software, San Diego, CA). For compound 9d a continuous incubation of 1, 2, 3 and 4 days on Vero cells was carried in order to evaluate the toxicity after long exposure the results are shown in S1 Fig and Fig 3. […]

Ad5 = Ad5 inhibition assay on HeLa cells; assay type: cell-based, Adenovirus 5
Protocol: (§2) HeLa cells were plated in 96-well plates. […] The GFP-expressing infected cells were observed under an inverted Zeiss LSM510 fluorescence microscope (Zeiss, Oberkochen, Germany) and the percentages of infection were calculated by comparing GFP positive cells in treated and untreated wells.

HPV-16 = HPV-16 inhibition assay on HeLa cells; assay type: cell-based, HPV-16 pseudovirions
Protocol: as §2

HCMV = HCMV inhibition assay on HELF cells; assay type: cell-based, HCMV strain Towne; settings: Human betaherpesvirus 5, HELF
Protocol: (§3) HELF cells were pre-plated in a 96-well plate. […] After five days incubation, cells were observed under an inverted Zeiss LSM510 fluorescence microscope (Zeiss, Oberkochen, Germany) and the percentages of infection were calculated by comparing GFP positive cells in treated and untreated wells.

IAV H1N1 = IAV H1N1 inhibition assay on MDCK cells; settings: Influenza A virus
Protocol: MDCK cells were pre-plated in 96-well plates. The following day, increasing concentrations of compounds were mixed with IAV (MOI 0.05) and incubated for 1 h at 37°C. The mixtures were subsequently added to the cells for 1 h at 37°C, after a washout cells were overlaid with medium for 16 h at 37°C. Cells were then fixed and subjected to specific immunostaining using a Flu A monoclonal antibody (Merck 5001) in order to visualize infected cells. Percentages of infection were calculated by comparing numbers of infected cells in treated and untreated wells.

[2] = tested on: HSV-2 acyclovir resistant strain; test: microbe, parasite or virus in culture; assay type: cell-based
RSV = RSV inhibition assay on Hep-2 cells; assay type: cell-based, RSV strain A2; settings: human respiratory syncytial virus
Protocol: HeP-2 cells were pre-plated in a 96-well plate. […] 72 h later cells were fixed and subjected to specific immunostaining using an RSV monoclonal antibody (Ab35958; Abcam, Cambridge, United Kingdom) in order to visualize syncytia.

[3] = Cell viability MTS assay, conditions of the HCMV assay; assay type: cell-based; settings: human, HELF cells
Protocol: as §1, with “vehicle.” for “vehicle. The 50% cytotoxic concentrations (CC50) and 95% confidence intervals (CIs) were determined using Prism software (Graph-Pad Software, San Diego, CA). For compound 9d a continuous incubation of 1, 2, 3 and 4 days on Vero cells was carried in order to evaluate the toxicity after long exposure the results are shown in S1 Fig and Fig 3.”
as §3

VSV = test: microbe, parasite or virus in culture; assay type: cell-based; settings: Vesicular stomatitis virus
HSV-2 [4] = test: HSV-2 plaquing efficiency assay, compound preincubated with virus 1 h at 37°C; assay type: cell-based; settings: Human alphaherpesvirus 2, HSV-2, Vero cells, 1 h pre-incubation virus/compound
HSV-2 [5] = test: Viral yield reduction, post treatment; settings: Human alphaherpesvirus 2
HSV-2 [6] = test: Time of addition: during infection, no preincubation; assay type: cell-based; settings: Human alphaherpesvirus 2; during-infection assay, virus and compound added simultaneously
HSV-2 [7] = test: Virucidal assay; assay type: cell-based; settings: for viral infectivity: 10 μM of compound
ZIKV = ZIKV plaquing efficiency assay; assay type: cell-based, Zika virus (PRVABC59); settings: Zika virus, ZIKAV
HRoV = HRoV inhibition assay on MA104 cells; assay type: cell-based, Human rotavirus strain Wa
Protocol: MA104 cell were plated in 96-well trays. The following day virus infectivity was activated by adding 5 μg porcine trypsin (Sigma)/mL for 30 min at 37°C. […] After 16 h, cells were fixed with cold acetone–methanol and viral titers were determined by indirect immunostaining using the monoclonal antibody mab-0036 (specific for human 41 kDa inner capsid protein–VP6 –of rotavirus) purchased from Covalab (Villeurbanne, France) and the UltraTech HRP Streptavidin-Biotin Detection System (Beckman Colter).

`CC(C)c1ccc(CCN2C(=O)/C(=C/c3ccc(-c4ccc(C(=O)O)c(O)c4)o3)SC2=S)cc1` [Compound 9d, (Z)-2-hydroxy-4-(5-((3-(4-isopropylphenethyl)-4-oxo-2-thioxothiazolidin-5-ylidene)methyl)furan-2-yl)benzoic acid] gave an EC50 (HSV-1; Human alphaherpesvirus 1, read-out: EC50 (95% C.I.)) of 2.18 nM, an EC90 (HSV-1; Human alphaherpesvirus 1, read-out: EC90 (95% C.I.)) of 35.1 nM and a CC50 at 1 h [1] of 156000 nM. For the same compound, the “antiviral activity against non-enveloped virus” value (Ad5) was “inactive”, the “antiviral activity against non-enveloped virus” value (HPV-16) was “inactive” and the EC50 (HCMV; read-out: EC50 (95% C.I.)) was 4.22 nM. For the same compound, the EC90 (HCMV; read-out: EC90 (95% C.I.)) was 31.3 nM, the EC50 (IAV H1N1; read-out: EC50 (95% C.I.)) was 66.1 nM and the EC90 (IAV H1N1; read-out: EC90 (95% C.I.)) was 301 nM. For the same compound, the EC50 ([2]; Human alphaherpesvirus 2, read-out: EC50 (95% C.I.)) was 1.6 nM, the EC90 ([2]; Human alphaherpesvirus 2, read-out: EC90 (95% C.I.)) was 24.3 nM and the EC50 (RSV; read-out: EC50 (95% C.I.)) was 54.8 nM. For the same compound, the EC90 (RSV; read-out: EC90 (95% C.I.)) was 221 nM, the CC50 at 3 h [3] was 5240 nM and the EC50 (VSV; read-out: EC50 (95% C.I.)) was 13.2 nM. For the same compound, the EC90 (VSV; read-out: EC90 (95% C.I.)) was 117 nM, the EC50 (HSV-2 [4]; plaques at 24 h, read-out: EC50 (95% C.I.)) was 6.55 nM and the EC90 (HSV-2 [4]; read-out: EC90 (95% C.I.)) was 40 nM. The EC50 (HSV-2 [5]) was 33.9 nM, the EC50 (HSV-2 [6]) was 147 nM and the viral infectivity (HSV-2 [7]; 15' post treatment) was “decreased”. For the same compound, the viral infectivity (HSV-2 [7]; from 30' on) was “completely abrogated”, the “infectivity after dilution in drug free medium” value (HSV-2 [7]; 1h incubation, then diluted for additional 1, 2, 3 or 4 hours) was “not regained” and the EC50 (HSV-2 [7]; Human alphaherpesvirus 2, virucidal assay, 1h of exposure, 10^5 pfu HSV-2) was 37.3 nM. The EC50 (ZIKV; read-out: EC50 (95% C.I.)) was 69.9 nM, the EC90 (ZIKV; read-out: EC90 (95% C.I.)) was 147 nM and the melting point was 259 °C (dec.). The “antiviral activity against non-enveloped virus” value (HRoV) was “inactive”.
